Results reported in patent publication US20220057383A1, “USE OF BIOMARKERS TO EVALUATE THE EFFICACY OF A COMPOSITION IN REDUCING THE EFFECTS OF CANCER THERAPEUTICS ON SKIN” (Johnson & Johnson Consumer Inc., priority 2019, published 2022).
Like-named read-outs stand apart in the source and are kept apart here.

Tests used:
[1] = tested on: RHE keratinocytes; assay: Transcriptomic analysis (gene expression profiling) of RHE keratinocytes treated with afatinib; type: cell-based, human; conditions: 100 nM afatinib; for number of genes down-regulated compared to control / number of genes up-regulated compared to control: cut off 50%
[2] = human, in vivo; cited from earlier work
[3] = tested on: Reconstructed Human Epidermis (RHE) tissues
[4] = 100 nM afatinib vs control, cut off 1.2-fold, overall

## Afatinib
[1]
  expression of genes related to inflammation (Th1 response): did not show any increase
  genes involved in innate immunity (S100 family, SPRR2B, DEFB1): negatively regulated
[1]; 6 h
  number of genes down-regulated compared to control: 170
  number of genes up-regulated compared to control: 201
[1]; 24 h
  expression of KRT2, KRT9, KRT13, KRT15 and Late Cornified Envelop genes (LCE2A, LCE1B, LCE2B, LCE1C, LCE2D): increase
  expression of metallothionein panel (MT1E, MT1L, MT1H L1, MT1X, MT1B, MT1A): decreased
  number of genes down-regulated compared to control: 335
  number of genes up-regulated compared to control: 281
[1]; 24 h and 72 h
  expression of CYP (CYP4B1, CYP3A7, CYP3A5, CYP2J2, CYP4A11, CYP1A1, CYP4F22): decreased
  expression of CYP (Inc-CYP24A1-1, CYP27A1, CYP4F12): increased
[1]; 72 h
  expression of SIRT4: increased
  expression of antioxidant enzymes PRDX2 and PRDX3: decreased
  expression of metallothionein panel (MT1E, MT1L, MT1H L1, MT1X, MT1B, MT1A): increased
[1]; cluster C2
  genes related to IL4 and IL13 signaling (Th2 response): over representation
[1]; cluster C6
  genes related to the PI3K/AKT pathway: upregulation
[1]; cut-off 50% fold-change, different time points
  number of dysregulated genes: 2,182
[1]; protein phosphorylation assay and gene expression array
  inflammasome response via TLR, NLR and IL1 families: decreased
[2]
  appearance of granulomas versus other EGFRi: more frequent appearance of granulomas
[3]; 100 nM afatinib
  FOXO3 phosphorylation: decreased
  cellular senescence pathway, enrichment based on change of protein phosphorylation status: significant enrichment
[3]; 100 nM afatinib vs control, cut off 1.2-fold change (more than 20%), all time points
  number of phosphoproteins with changed phosphorylation status: 62
[3]; [4]
  number of proteins with a significant decrease of phosphorylation status: 18
  number of proteins with a significant increase of phosphorylation status: 44
[3]; 100 nM afatinib, 20 min
  number of proteins showing decreased phosphorylation compared to control: 3
  number of proteins showing increased phosphorylation compared to control: 6
[3]; 100 nM afatinib, 24 h
  PI3K-AKT pathway, Set Enrichment Analysis of phosphorylation status: significant enrichment
  number of proteins showing decreased phosphorylation compared to control: 23
  number of proteins showing increased phosphorylation compared to control: 18
  phosphorylation of MEK1 (Phospho-Ser217): not impacted
  phosphorylation of MEK1 (Phospho-Ser221): not impacted
  phosphorylation of Raf1 (Phospho-Ser338): decreased
  phosphorylation of Raf1 (Phospho-Tyr341): not impacted
  phosphorylation of eIF4E (Phospho-Ser209): decreased
[3]; 100 nM afatinib, 72 h
  number of proteins showing decreased phosphorylation compared to control: 6
  number of proteins showing increased phosphorylation compared to control: 6
